Data published in US9340559B2, “Proteasome inhibitor delanzomib for use in the treatment of lupus” (Cephalon, Inc., priority 2011, dated 2016).

Tests used:
NZM mice [1] = assay: Splenomegaly (spleen mass), NZM mice (Example 2); format: in vivo, mouse
NZM mice [2] = assay: Urinalysis: total urine protein (proteinuria), NZM mice (Example 2); format: in vivo, mouse; details: G6 50 mg/kg ip, 1× wk
NZM mice [3] = assay: Body weight progression, NZM mice (Example 2); format: in vivo, mouse; details: G6 50 mg/kg ip, 1× wk
NZM mice [4] = assay: Serum C3 complement ELISA, NZM mice (Example 2)
NZM mice [5] = format: in vivo, mouse
NZM mice [6] = assay: Antibody secreting B-cell Elispot (anti-chromatin, total IgG ASC), spleens of NZM mice (Example 2); format: in vivo, mouse
Description: (§1) FIG. 34 depicts the frequency of anti-chromatin antibody secreting cells in the spleens of NZM mice. NZM treated mice spleens were processed for splenocytes for ex vivo Elispot assays. Elispot wells were coated with 10 μg/mL of boiled chicken chromatin or ovalbumin protein. Fresh, whole splenocytes were added to each well at 50,000 cells per well in cell culture medium. Cells were incubated overnight at 37° C. Developed wells provided spots that were counted as frequency of ASCs per million splenocytes.
as §1, with “35” for “34”, “total IgG” for “anti-chromatin”, “anti-mouse IgG, IgH, and IgL chains.” for “boiled chicken chromatin or ovalbumin protein.”
B-cell Elispot components are ordered from MabTech (Nacka Strand, Sweden) and nitrocellulose IP filter plates are ordered from Millipore (Billerica, Mass.). Elispot wells are coated with either purified bovine thymus dsDNA (Sigma), purified bovine Smith antigen (GenWay) or boiled filtered purified chicken chromatin from lysed chicken red blood cells (Rockland, Gilbertsville, Pa.) at 10 μg/mL. Spleens are processed using glass homogenization (frosted slides). Dispersed cell contents are washed in sterile HBSS and RBCs lysed using 1×RBC lysis buffer (BioLegend, Cat #420301). Processed splenocytes are added to each well and are not stimulated with lipopolysaccharide (LPS) to avoid skewing of true ex vivo frequencies of antibody-secreting cell types (ASCs). Anti-mouse pan-IgG is used as a positive control for total IgG producing ASCs and is used to normalize results. Frequencies for each antigen are identified in an initial test phase for each model. For chromatin and total IgG only, 30,000 splenocytes are added to each well; for Smith antigen and dsDNA, 500,000 cells are added to each well. Different numbers of splenocytes are added for different antigens due to saturation limits of spot frequencies per well. B-cell Elispots are incubated overnight at 37° C. To develop each assay, secondary antibody is added to each well, incubated, washed and alkaline phosphatase strepavidin (Jackson ImmunoResearch, West Grove, Pa.) is used as the conjugate; substrate used is BCIP-NBT (MabTech, Cincinnati, Ohio). Plates are developed until spots are visible. All Elispot analyses are performed using an Immunospot C.T.L. scanner and Biospot software (Cellular Technology Ltd., Shaker Heights, Ohio). Results are shown as values from which media and cells only wells are subtracted. Some values are negative due to high background.

NZM mice [7] = assay: Renal histopathology scoring (kidney IC-GN), NZM mice (Example 2); format: in vivo, mouse
Description: For histological analyses, the left kidney from each animal is removed and fixed in 10% buffered neutral formalin (EMD) for 48 hours on an orbital rocker at 25° C., then washed overnight with running dH2O and stored in 70% ethanol at 4° C. until ready to be processed. Kidney stains used for histological analyses included hematoxylin and eosin (H&E), Periodic Acid Schiff (PAS) and Trichrome stains (Wistar Institute, Philadelphia, Pa.). All 3 stained sections are used by the pathologist for scoring purposes. All histological scoring is performed blinded and by an independent board certified veterinary medical pathologist (Julie Engiles, VMD, DACVP). Multiple stains are used to determine score values. Images in FIG. 39 show worst affected area of section selected blindly by the pathologist.
Kidney IC-GN Scoring Method (Smith, Dong et al. 2007):
1. Glomerular cellularity—Score 1-5: Null, low, moderate, high, severe
2. Glomerular necrosis—Score 1-5: Null, low, moderate, high, severe
3. Glomerulosclerosis—Score 1-5: Null, low, moderate, high, severe
4. Interstitial infiltration—Score 1-5: Null, low, moderate, high, severe
5. Tubular atrophy—Score 1-5: Null, low, moderate, high, severe
6. Interstitial fibrosis—Score 1-5: Null, low, moderate, high, severe
7. Vasculitis—Score 1-5: Null, low, moderate, high, severe
Specific Pathologist Definitions: • Necrosis is defined by the presence of nuclear debris/pyknosis within the glomerular tuft indicative of “necrosis.” In many samples, this is a very mild, rare finding within only a very few segments of the glomerular tuft. Also consider effacement of the glomerular tuft by PAS positive, Trichrome negative material necrosis. • Glomerular sclerosis is defined by increased fibroplasia or fibrosis within the glomerular tuft or capsule. […] Most of the vascular changes are mild and could be considered “arteriosclerosis” characterized by proliferation of the smooth muscle cells, and hyalinization of the extracellular matrix. This change may reflect hypertension secondary to glomerular pathology. In very few animals is there overt “vasculitis.” Most inflammatory changes are within the walls of the blood vessels, with little to no damage to the endothelium, and no overt hemorrhage/fibrin leakage. Many also have perivascular rims of fibroblasts.

NZM mice [8] = assay: Collagen type-I cross-linker (CTx) bone resorption biomarker ELISA, serum of NZM mice; format: in vivo, mouse; details: G6 50 mg/kg ip, 1× wk
Description: Assay is performed as instructed by the manufacturer. Briefly, biotinylated ratlaps antigen is first added in each well of a 96-well ELISA plate. This plate is covered and incubated for 30 minutes at RT. Plate is washed five times with washing solution and incubated with standards or unknown samples in appropriate wells followed by primary Ab. Incubate overnight for 18 hours at 4° C. followed by washing with buffer. Secondary incubation includes a peroxidase conjugated goat anti-rabbit IgG added to each well and incubation at RT for 1 hour. Incubation with chromogenic substrate solution for 15 minutes at RT in the dark develops the plate for analysis. Stopping solution halts the reaction, absorbance is measured within 2 hours at 450 nm.

NZM mice [9] = assay: Survival, NZM lupus nephritis model, ip dosing (Example 2); format: in vivo, mouse; details: G6 50 mg/kg ip, 1× wk
NZM mice [10] = assay: Antinuclear antibody (ANA) ELISA (anti-chromatin, anti-Smith Ag, anti-dsDNA), serum of NZM mice (Example 2); format: in vivo, mouse

O=P1(N(CCCl)CCCl)NCCCO1 (centres unmarked) [CTX, Cyclophosphamide]
Spleen mass EOS, percent change vs vehicle (NZM mice [1]; G6 50 mg/kg ip, 1× wk): −42%
spleen mass compared to once-a-week bortezomib (NZM mice [1]; p<0.05): reduced spleen mass significantly
Urine proteinuria AUC, percent change vs vehicle (NZM mice [2]): −68%
Body mass AUC, percent change vs vehicle (NZM mice [3]): +4%
Serum C3 complement AUC, percent change vs vehicle (NZM mice [4]; G6 50 mg/kg ip, 1× wk): −18%
p, serum C3 complement levels vs G8 Dex 1.5 mg/kg 3× wk ip (NZM mice [4]; G7 50 mg/kg 1× wk ip): p < 0.01
Cytokine IL-12 AUC, percent change vs vehicle (NZM mice [5]; G6 50 mg/kg ip, 1× wk): −78%
Cytokine IL-13 AUC, percent change vs vehicle (NZM mice [5]; G6 50 mg/kg ip, 1× wk): 486%
Cytokine IL-17A AUC, percent change vs vehicle (NZM mice [5]; G6 50 mg/kg ip, 1× wk): 508%
Cytokine IP-10 AUC, percent change vs vehicle (NZM mice [5]; G6 50 mg/kg ip, 1× wk): 338%
Cytokine MIG AUC, percent change vs vehicle (NZM mice [5]; G6 50 mg/kg ip, 1× wk): 359%
Cytokine TNFα AUC, percent change vs vehicle (NZM mice [5]; G6 50 mg/kg ip, 1× wk): −25%
p, serum IL-12p40/p70 concentration vs G5 Bortezomib 0.3 mg/kg 1× wk ip (NZM mice [5]; G7 50 mg/kg 1× wk ip): NS (NS = not significant (p > 0.05))
p, serum IL-12p40/p70 concentration vs G6 Bortezomib 0.3 mg/kg 2× wk ip (NZM mice [5]; G7 50 mg/kg 1× wk ip): NS (NS = not significant (p > 0.05))
p, serum IL-12p40/p70 concentration vs G8 Dex 1.5 mg/kg 3× wk ip (NZM mice [5]; G7 50 mg/kg 1× wk ip): NS (NS = not significant (p > 0.05))
p, serum IL-12p40/p70 concentration vs G9 Vehicle 1× wk ip (NZM mice [5]; G7 50 mg/kg 1× wk ip): p < 0.001
p, serum IL-13 concentration vs G5 Bortezomib 0.3 mg/kg 1× wk ip (NZM mice [5]; G7 50 mg/kg 1× wk ip): p < 0.001
p, serum IL-13 concentration vs G6 Bortezomib 0.3 mg/kg 2× wk ip (NZM mice [5]; G7 50 mg/kg 1× wk ip): p < 0.001
p, serum IL-13 concentration vs G8 Dex 1.5 mg/kg 3× wk ip (NZM mice [5]; G7 50 mg/kg 1× wk ip): p < 0.001
p, serum IL-13 concentration vs G9 Vehicle 1× wk ip (NZM mice [5]; G7 50 mg/kg 1× wk ip): p < 0.001
p, serum IL-17A concentration vs G5 Bortezomib 0.3 mg/kg 1× wk ip (NZM mice [5]; G7 50 mg/kg 1× wk ip): NS (NS = not significant (p > 0.05))
p, serum IL-17A concentration vs G6 Bortezomib 0.3 mg/kg 2× wk ip (NZM mice [5]; G7 50 mg/kg 1× wk ip): p < 0.001
p, serum IL-17A concentration vs G8 Dex 1.5 mg/kg 3× wk ip (NZM mice [5]; G7 50 mg/kg 1× wk ip): p < 0.001
p, serum IL-17A concentration vs G9 Vehicle 1× wk ip (NZM mice [5]; G7 50 mg/kg 1× wk ip): p < 0.001
p, serum IP-10 concentration vs G5 Bortezomib 0.3 mg/kg 1× wk ip (NZM mice [5]; G7 50 mg/kg 1× wk ip): P < 0.001
p, serum IP-10 concentration vs G6 Bortezomib 0.3 mg/kg 2× wk ip (NZM mice [5]; G7 50 mg/kg 1× wk ip): p < 0.001
p, serum IP-10 concentration vs G8 Dex 1.5 mg/kg 3× wk ip (NZM mice [5]; G7 50 mg/kg 1× wk ip): P < 0.001
p, serum IP-10 concentration vs G9 Vehicle 1× wk ip (NZM mice [5]; G7 50 mg/kg 1× wk ip): p < 0.001
p, serum MIG concentration vs G5 Bortezomib 0.3 mg/kg 1× wk ip (NZM mice [5]; G7 50 mg/kg 1× wk ip): p < 0.001
p, serum MIG concentration vs G6 Bortezomib 0.3 mg/kg 2× wk ip (NZM mice [5]; G7 50 mg/kg 1× wk ip): p < 0.001
p, serum MIG concentration vs G8 Dex 1.5 mg/kg 3× wk ip (NZM mice [5]; G7 50 mg/kg 1× wk ip): p < 0.001
p, serum MIG concentration vs G9 Vehicle 1× wk ip (NZM mice [5]; G7 50 mg/kg 1× wk ip): p < 0.001
p, serum TNFα concentration vs G5 Bortezomib 0.3 mg/kg 1× wk ip (NZM mice [5]; G7 50 mg/kg 1× wk ip): NS (NS = not significant (p > 0.05))
p, serum TNFα concentration vs G6 Bortezomib 0.3 mg/kg 2× wk ip (NZM mice [5]; G7 50 mg/kg 1× wk ip): NS (NS = not significant (p > 0.05))
p, serum TNFα concentration vs G8 Dex 1.5 mg/kg 3× wk ip (NZM mice [5]; G7 50 mg/kg 1× wk ip): p <0.05
p, serum TNFα concentration vs G9 Vehicle 1× wk ip (NZM mice [5]; G7 50 mg/kg 1× wk ip): NS (NS = not significant (p > 0.05))
ASC chromatin EOS, percent change vs vehicle (NZM mice [6]; G6 50 mg/kg ip, 1× wk): −100%
ASC total IgG EOS, percent change vs vehicle (NZM mice [6]; G6 50 mg/kg ip, 1× wk): −93%
p, frequency of anti-chromatin antibody secreting cells in spleen vs G5 Bortezomib 0.3 mg/kg 1× wk ip (NZM mice [6]; G7 50 mg/kg 1× wk ip): P < 0.05
p, frequency of anti-chromatin antibody secreting cells in spleen vs G6 Bortezomib 0.3 mg/kg 2× wk ip (NZM mice [6]; G7 50 mg/kg 1× wk ip): p < 0.05
p, frequency of anti-chromatin antibody secreting cells in spleen vs G9 Vehicle 1× wk ip (NZM mice [6]; G7 50 mg/kg 1× wk ip): p < 0.01
p, frequency of total IgG antibody secreting cells in spleen vs G5 Bortezomib 0.3 mg/kg 1× wk ip (NZM mice [6]; G7 50 mg/kg 1× wk ip): p < 0.001
p, frequency of total IgG antibody secreting cells in spleen vs G6 Bortezomib 0.3 mg/kg 2× wk ip (NZM mice [6]; G7 50 mg/kg 1× wk ip): p < 0.001
p, frequency of total IgG antibody secreting cells in spleen vs G8 Dex 1.5 mg/kg 3× wk ip (NZM mice [6]; G7 50 mg/kg 1× wk ip): P < 0.01
p, frequency of total IgG antibody secreting cells in spleen vs G9 Vehicle 1× wk ip (NZM mice [6]; G7 50 mg/kg 1× wk ip): p < 0.01
p, glomerular cellularity (GC) vs G7 Vehicle (NZM mice [7]; G5 50 mg/kg 1× wk): p < 0.05
Kidney glomerular cellularity, percent change vs vehicle (NZM mice [7]; G6 50 mg/kg ip, 1× wk): −7%
Kidney glomerular necrosis, percent change vs vehicle (NZM mice [7]; G6 50 mg/kg ip, 1× wk): 42%
Kidney glomerulosclerosis, percent change vs vehicle (NZM mice [7]; G6 50 mg/kg ip, 1× wk): 34%
Kidney interstitial fibrosis, percent change vs vehicle (NZM mice [7]; G6 50 mg/kg ip, 1× wk): 11%
Kidney interstitial infiltration, percent change vs vehicle (NZM mice [7]; G6 50 mg/kg ip, 1× wk): 11%
Kidney tubular atrophy, percent change vs vehicle (NZM mice [7]; G6 50 mg/kg ip, 1× wk): 18%
Kidney vasculitis, percent change vs vehicle (NZM mice [7]; G6 50 mg/kg ip, 1× wk): 9%
Serum CTx linker AUC, percent change vs vehicle (NZM mice [8]): −26%
EOS survival, percent live mice from original number (NZM mice [9]): 70%
ANA Smith Ag AUC, percent change vs vehicle (NZM mice [10]; G6 50 mg/kg ip, 1× wk): −86%
ANA chromatin AUC, percent change vs vehicle (NZM mice [10]; G6 50 mg/kg ip, 1× wk): −51%
ANA dsDNA AUC, percent change vs vehicle (NZM mice [10]; G6 50 mg/kg ip, 1× wk): −66%
reduction in anti-chromatin Ab relative to vehicle, significance (NZM mice [10]; bortezomib, Dex or CTX treatment groups): none of which was significant
